Entries after “also recorded” stand apart in the source; their conditions may differ. Where two headings read alike, the source gives them in different places.
Experiments:
type 2 diabetes patients [1] = settings: cited from earlier work
type 2 diabetes patients [2] = test: Hyperglycemia Efficacy Index (HEI) of diabetes drugs, from review of phase III trials with 7- or 8-point SMBG; assay type: in vivo, human; settings: median ratio of effect on FBG vs effect on PPG; drugs from the same class have the same HEI
Source text: Such results can be e.g. assessed via scientific publications or regulatory documents which disclose the results for the trials. Suitable scientific publications describing such trials for individual drugs can be, e.g., identified via PubMed. In an embodiment, the trials have assessed large cohorts of diabetes patients such as type 2 diabetes patients and report 7- or 8 point self-monitoring blood glucose data with determinations carried out in the fasting state, in the pre-prandial state and in the post-prandial state. In an embodiment, the trials include only type 2 diabetes patients without major comorbidities.
For establishing the database, the published information on the effects under (d1), (d2), and the risk under (d4) shall be taken into account. The indices under (d3), can be determined based on the published information for the analyzed trials.
In an embodiment, the Hyperglycemia Efficacy Index (HEI) for a drug is the ratio of the effect of said drug on fasting glucose to the effect of said drug on post-prandial glucose (i.e. the effect under (d1) and the effect under (d2)).

In the case of `C[C@H]1O[C@H](O[C@H]2[C@H](O)[C@@H](O)[C@@H](O[C@H]3[C@H](O)[C@@H](O)C(O)O[C@@H]3CO)O[C@@H]2CO)[C@H](O)[C@@H](O)[C@@H]1N[C@H]1C=C(CO)[C@@H](O)[C@H](O)[C@H]1O` (stereo partly drawn) [Acarbose], the “Hypo Risk Index (HRI)” value (type 2 diabetes patients [1]; 30 mg) is listed as “HRI 1 - low”, the “Hypo Risk Index (HRI)” value (type 2 diabetes patients [1]; 300 mg) is listed as “HRI 1 - low” and the “Hyperglycemia Efficacy Index (HEI)” value (type 2 diabetes patients [2]) is listed as “HEI 0.54”.

For `Cc1ccc([C@@H]2O[C@H](CO)[C@@H](O)[C@H](O)[C@H]2O)cc1Cc1ccc(-c2ccc(F)cc2)s1` [Canagliflozin], the “Hypo Risk Index (HRI)” value (type 2 diabetes patients [1]; 100 mg) is listed as “HRI 1 - low” and the “Hypo Risk Index (HRI)” value (type 2 diabetes patients [1]; 300 mg) is listed as “HRI 1 - low”.

For `CCOc1ccc(Cc2cc([C@@H]3O[C@H](CO)[C@@H](O)[C@H](O)[C@H]3O)ccc2Cl)cc1` [Dapagliflozin], the “Hypo Risk Index (HRI)” value (type 2 diabetes patients [1]; 10 mg) is given as “HRI 1 - low”.

In the case of `OC[C@H]1O[C@@H](c2ccc(Cl)c(Cc3ccc(O[C@H]4CCOC4)cc3)c2)[C@H](O)[C@@H](O)[C@@H]1O` [Empagliflozin], the “Hypo Risk Index (HRI)” value (type 2 diabetes patients [1]; 10 mg) is listed as “HRI 1 - low”, the “Hypo Risk Index (HRI)” value (type 2 diabetes patients [1]; 25 mg) is listed as “HRI 1 - low” and the “Hyperglycemia Efficacy Index (HEI)” value (type 2 diabetes patients [2]) is listed as “HEI 0.56”.

In the case of `Cc1ccc(S(=O)(=O)NC(=O)NN2CC3CCCC3C2)cc1` (stereo not drawn) [Gliclazide], the “Hypo Risk Index (HRI)” value (type 2 diabetes patients [1]; 80-320 mg) is given as “HRI 2 - moderate; also recorded: HRI 2 - medium”.

For `CCC1=C(C)CN(C(=O)NCCc2ccc(S(=O)(=O)NC(=O)N[C@H]3CC[C@H](C)CC3)cc2)C1=O` [Glimepiride], the “Hypo Risk Index (HRI)” value (type 2 diabetes patients [1]; 1-8 mg) is given as “HRI 2 - moderate; also recorded: HRI 2 - medium”.

For `CCCCCCCCCCCCCCCC(=O)N[C@@H](CCC(=O)NCCCC[C@H](NC(=O)[C@H](C)NC(=O)[C@H](C)NC(=O)[C@H](CCC(N)=O)NC(=O)CNC(=O)[C@H](CCC(=O)O)NC(=O)[C@H](CC(C)C)NC(=O)[C@H](Cc1ccc(O)cc1)NC(=O)[C@H](CO)NC(=O)[C@H](CO)NC(=O)[C@@H](NC(=O)[C@H](CC(=O)O)NC(=O)[C@H](CO)NC(=O)[C@@H](NC(=O)[C@H](Cc1ccccc1)NC(=O)[C@@H](NC(=O)CNC(=O)[C@H](CCC(=O)O)NC(=O)[C@H](C)NC(=O)[C@@H](N)Cc1cnc[nH]1)[C@@H](C)O)[C@@H](C)O)C(C)C)C(=O)N[C@@H](CCC(=O)O)C(=O)N[C@@H](Cc1ccccc1)C(=O)N[C@H](C(=O)N[C@@H](C)C(=O)N[C@@H](Cc1c[nH]c2ccccc12)C(=O)N[C@@H](CC(C)C)C(=O)N[C@H](C(=O)N[C@@H](CCCNC(=N)N)C(=O)NCC(=O)N[C@@H](CCCNC(=N)N)C(=O)NCC(=O)O)C(C)C)[C@@H](C)CC)C(=O)O` [Liraglutide], the “Hypo Risk Index (HRI)” value (type 2 diabetes patients [1]; 1.2 mg) is listed as “HRI 1 - low” and the “Hypo Risk Index (HRI)” value (type 2 diabetes patients [1]; 1.8 mg) is listed as “HRI 1 - low”.

For `CN(C)C(=N)N=C(N)N` [Metformin], the “Hypo Risk Index (HRI)” value (type 2 diabetes patients [1]; ≥1000 mg) is listed as “HRI 1 - low” and the “Hyperglycemia Efficacy Index (HEI)” value (type 2 diabetes patients [2]) is listed as “HEI 0.59”.

In the case of `CCOc1cc(CC(=O)N[C@@H](CC(C)C)c2ccccc2N2CCCCC2)ccc1C(=O)O` [Repaglinide], the “Hypo Risk Index (HRI)” value (type 2 diabetes patients [1]; 1.5-12 mg) is given as “HRI 2 - medium” and the “Hyperglycemia Efficacy Index (HEI)” value (type 2 diabetes patients [2]) is given as “HEI 0.62”.

In the case of Dulaglutide, the “Hypo Risk Index (HRI)” value (type 2 diabetes patients [1]; 0.75 mg) is listed as “HRI 1 - low” and the “Hypo Risk Index (HRI)” value (type 2 diabetes patients [1]; 1.5 mg) is listed as “HRI 1 - low”.

For Exenatide LAR, the “Hypo Risk Index (HRI)” value (type 2 diabetes patients [1]; 2 mg) is listed as “HRI 1 - low” and the “Hyperglycemia Efficacy Index (HEI)” value (type 2 diabetes patients [2]) is listed as “HEI 0.76”.

Reference: patent US20220101973A1, “PERSONALIZED TREATMENT TOOL” (Roche Diabetes Care, Inc., priority 2018, published 2022)
